Results reported in patent US9561231B2 (AbbVie Inc., priority 2012, dated 2017).

Experiments:
[1] = target: T1, first (BD1: amino acids K57-E168) bromodomain of BRD4 (Homo sapiens, UniProt O60885); assay: TR-FRET bromodomain binding assay, BRD4 BD1; settings: TR-FRET assay protocol (A-G, compound concentration range); Ki calculated from IC50, probe Kd and probe concentration; read-out: TR-FRET Binding Ki: BRD4 (BDI_K57-E168)
T1 construct: His-tagged first (BD1: amino acids K57-E168)
Procedure, shortened: (§1)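 Displacement of Alexa647-labeled BET-inhibitor probe from His-tagged bromodomain, TR-FRET read-out; buffer 20 mM Na phosphate pH 6.0, 50 mM NaCl, 0.01% Triton X-100. IC50 by 4PL fit; Ki calculated from IC50, probe Kd and probe concentration.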

[2] = target: T2, second (BD2: amino acids E352-E168) bromodomain of BRD4 (Homo sapiens, UniProt O60885); assay: TR-FRET bromodomain binding assay, BRD4 BD2; settings: TR-FRET assay protocol (A-G, compound concentration range); Ki calculated from IC50, probe Kd and probe concentration; read-out: TR-FRET Binding Ki: BRD4 (BDII_E352-M457)
T2 construct: protocol
Procedure, shortened: as §1

[3] = system: breast cancer cell line MX-1; assay: MX-1 cell line proliferation assay (3-day); assay type: cell-based; settings: Homo sapiens, MX1; MX-1 cells, 72 h incubation, Cell Titer Glo; read-out: Cellular proliferation: EC50
Procedure, shortened: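 EC50 derived by sigmoidal fitting of Cell Titer Glo signal relative to DMSO controls. Compound, 3 μM down to 0.0001 μM final in 3-fold steps, was added to adhered MX-1 cells (5000/well, RPMI + 10% FBS) for a 3-day incubation at 37° C.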

SMILES | Ki [1] [nM] | Ki [2] [nM] | EC50 [3] [nM]
Cc1cc(-c2ccccc2Oc2ccccc2)c[nH]c1=O [Example 260, 3-methyl-5-(2-phenoxyphenyl)pyridin-2(1H)-one] | 216 | 406 | 2350
CC(=O)Nc1ccc(Oc2ccccc2)c(-c2c[nH]c(=O)c(C)c2)c1 [Example 262, N-[3-(5-methyl-6-oxo-1,6-dihydropyridin-3-yl)-4-phenoxyphenyl]acetamide] | 77.9 | 290 | 783
Cc1cc(-c2cc(NS(C)(=O)=O)ccc2Oc2ccc(F)cc2F)c[nH]c1=O [Example 263, N-[4-(2,4-difluorophenoxy)-3-(5-methyl-6-oxo-1,6-dihydropyridin-3-yl)phenyl]methanesulfonamide] | 48.8 | 121 | 304
CCS(=O)(=O)Nc1ccc(Oc2ccc(F)cc2F)c(-c2c[nH]c(=O)c(C)c2)c1 [Example 264, N-[4-(2,4-difluorophenoxy)-3-(5-methyl-6-oxo-1,6-dihydropyridin-3-yl)phenyl]ethanesulfonamide] | 33.5 | 55.3 | 176
CC(=O)Nc1ccc(Oc2ccc(F)cc2F)c(-c2c[nH]c(=O)c(C)c2)c1 [Example 265, N-[4-(2,4-difluorophenoxy)-3-(5-methyl-6-oxo-1,6-dihydropyridin-3-yl)phenyl]acetamide] | 132 | 172 | 1720
Cc1cc(-c2cc(NS(C)(=O)=O)ccc2OC2CCC(F)(F)CC2)c[nH]c1=O [Example 266, N-{4-[(4,4-difluorocyclohexyl)oxy]-3-(5-methyl-6-oxo-1,6-dihydropyridin-3-yl)phenyl}methanesulfonamide] | 58.3 | 341 | > 3000
CCS(=O)(=O)Nc1ccc(OC2CCC(F)(F)CC2)c(-c2c[nH]c(=O)c(C)c2)c1 [Example 267, N-{4-[(4,4-difluorocyclohexyl)oxy]-3-(5-methyl-6-oxo-1,6-dihydropyridin-3-yl)phenyl}ethanesulfonamide] | 47.8 | 101 | > 3000
CCS(=O)(=O)Nc1ccc(Oc2ccc(F)cc2F)c(-c2cn(C)c(=O)cc2C(F)(F)F)c1 [Example 268, N-{4-(2,4-difluorophenoxy)-3-[1-methyl-6-oxo-4-(trifluoromethyl)-1,6-dihydropyridin-3-yl]phenyl}ethanesulfonamide] | 483 | 95.1 | 579
Cn1cc(-c2cc(NS(C)(=O)=O)ccc2Oc2ccc(F)cc2F)c(-c2ccc(CO)cc2)cc1=O [Example 272, N-[4-(2,4-difluorophenoxy)-3-{4-[4-(hydroxymethyl)phenyl]-1-methyl-6-oxo-1,6-dihydropyridin-3-yl]phenyl}methanesulfonamide] | 16.9 | 4.62 | 167
CN1CCN(Cc2ccc(-c3cc(=O)n(C)cc3-c3cc(NS(C)(=O)=O)ccc3Oc3ccc(F)cc3F)cc2)CC1 [Example 273, N-[4-(2,4-difluorophenoxy)-3-(1-methyl-4-{4-[(4-methylpiperazin-1-yl)methyl]phenyl}-6-oxo-1,6-dihydropyridin-3-yl)phenyl]methanesulfonamide] | 4.58 | 2.45 | 107
Cn1cc(-c2cc(NS(C)(=O)=O)ccc2Oc2ccc(F)cc2F)c(-c2ccc(N3CCOCC3)cc2)cc1=O [Example 274, N-[4-(2,4-difluorophenoxy)-3-{1-methyl-4-[4-(morpholin-4-yl)phenyl]-6-oxo-1,6-dihydropyridin-3-yl]phenyl}methanesulfonamide] | 24.5 | 5.5 | 77.4
CCS(=O)(=O)c1ccc(OCC2CC2)c(-c2cn(C)c(=O)cc2OC)c1 [Example 275, 5-[2-(cyclopropylmethoxy)-5-(ethylsulfonyl)phenyl]-4-methoxy-1-methylpyridin-2(1H)-one] | 55.9 | 119 | 223
CCOc1cc(=O)n(C)cc1-c1cc(NS(C)(=O)=O)ccc1Oc1ccc(F)cc1F [Example 277, N-[4-(2,4-difluorophenoxy)-3-(4-ethoxy-1-methyl-6-oxo-1,6-dihydropyridin-3-yl)phenyl]methanesulfonamide] | 10.7 | 5.29 | 48.1
CCS(=O)(=O)Nc1ccc(Oc2ccc(F)cc2F)c(-c2cn(C)c(=O)cc2-c2ccc(CO)cc2)c1 [Example 278, N-[4-(2,4-difluorophenoxy)-3-{4-[4-(hydroxymethyl)phenyl]-1-methyl-6-oxo-1,6-dihydropyridin-3-yl]phenyl}ethanesulfonamide] | 7.53 | 1.39 | 63.4
CCS(=O)(=O)Nc1ccc(Oc2ccc(F)cc2F)c(-c2cn(C)c(=O)cc2-c2ccc(CN3CCN(C)CC3)cc2)c1 [Example 279, N-[4-(2,4-difluorophenoxy)-3-(1-methyl-4-{4-[(4-methylpiperazin-1-yl)methyl]phenyl}-6-oxo-1,6-dihydropyridin-3-yl)phenyl]ethanesulfonamide] | 2.73 | 1.3 | 45.4
CCS(=O)(=O)Nc1ccc(Oc2ccc(F)cc2F)c(-c2cn(C)c(=O)cc2-c2ccc(CN(C)C)cc2)c1 [Example 280, N-[4-(2,4-difluorophenoxy)-3-(4-{4-[(dimethylamino)methyl]phenyl}-1-methyl-6-oxo-1,6-dihydropyridin-3-yl)phenyl]ethanesulfonamide] | 3.8 | 1.73 | 38.1
Cn1cc(-c2ccccc2Oc2ccccc2)cc(Cl)c1=O [Example 281, 3-chloro-1-methyl-5-(2-phenoxyphenyl)pyridin-2(1H)-one] | 150 | 509 | 1650
CCS(=O)(=O)Nc1ccc(Oc2ccc(F)cc2F)c(-c2cc(Cl)c(=O)n(C)c2)c1 [Example 283, N-[3-(5-chloro-1-methyl-6-oxo-1,6-dihydropyridin-3-yl)-4-(2,4-difluorophenoxy)phenyl]ethanesulfonamide] | 17.4 | 39.4 | 194
CCS(=O)(=O)Nc1ccc(Oc2ccc(F)cc2F)c(-c2cn(C)c(=O)cc2-c2ccc(N3CCOCC3)cc2)c1 [Example 284, N-[4-(2,4-difluorophenoxy)-3-{1-methyl-4-[4-(morpholin-4-yl)phenyl]-6-oxo-1,6-dihydropyridin-3-yl]phenyl}ethanesulfonamide] | 5.75 | 1.84 | 44.3
CCS(=O)(=O)Nc1ccc(Oc2ccc(F)cc2F)c(-c2cn(C)c(=O)cc2OCCN2CCOCC2)c1 [Example 286, N-[4-(2,4-difluorophenoxy)-3-{1-methyl-4-[2-(morpholin-4-yl)ethoxy]-6-oxo-1,6-dihydropyridin-3-yl]phenyl}ethanesulfonamide] | 82.6 | 75.9 | > 3000
CCS(=O)(=O)Nc1ccc(Oc2ccc(F)cc2F)c(-c2cn(C)c(=O)cc2OCC2CC2)c1 [Example 287, N-(3-(4-(cyclopropylmethoxy)-1-methyl-6-oxo-1,6-dihydropyridin-3-yl)-4-(2,4-difluorophenoxy)phenyl)ethanesulfonamide] | 6.62 | 2.15 | 59.6
CCS(=O)(=O)Nc1ccc(Oc2ccc(F)cc2F)c(-c2cn(C)c(=O)cc2OC(C)C)c1 [Example 289, N-{4-(2,4-difluorophenoxy)-3-[1-methyl-6-oxo-4-(propan-2-yloxy)-1,6-dihydropyridin-3-yl]phenyl}ethanesulfonamide] | 6.31 | 0.639 | 77
CCS(=O)(=O)Nc1ccc(Oc2ccc(F)cc2F)c(-c2cn(C)c(=O)cc2OCC(C)C)c1 [Example 290, N-{4-(2,4-difluorophenoxy)-3-[1-methyl-4-(2-methylpropoxy)-6-oxo-1,6-dihydropyridin-3-yl]phenyl}ethanesulfonamide] | 12 | 3.22 | 138
CCS(=O)(=O)Nc1ccc(Oc2ccc(F)cc2F)c(-c2cn(C)c(=O)cc2OCC2CCOC2)c1 (stereo not drawn) [Example 291, N-{4-(2,4-difluorophenoxy)-3-[1-methyl-6-oxo-4-(tetrahydrofuran-3-ylmethoxy)-1,6-dihydropyridin-3-yl]phenyl}ethanesulfonamide] | 16.2 | 6.27 | 112
CCS(=O)(=O)Nc1ccc(Oc2ccc(C(N)=O)cc2)c(-c2cn(C)c(=O)cc2OCC(F)(F)F)c1 [Example 294, 4-{4-[(ethylsulfonyl)amino]-2-[1-methyl-6-oxo-4-(2,2,2-trifluoroethoxy)-1,6-dihydropyridin-3-yl]phenoxy}benzamide] | 27.8 | 8.3 | > 3000
CCOc1cc(=O)n(C)cc1-c1cc(NC(=O)c2ccc(COc3ccccc3)cc2)ccc1Oc1ccc(F)cc1F [Example 297, N-[4-(2,4-difluorophenoxy)-3-(4-ethoxy-1-methyl-6-oxo-1,6-dihydropyridin-3-yl)phenyl]-4-(phenoxymethyl)benzamide] | > 238 | 256 | 2420
CCOc1cc(=O)n(C)cc1-c1cc(NC(=O)CCC(C)C)ccc1Oc1ccc(F)cc1F [Example 298, N-[4-(2,4-difluorophenoxy)-3-(4-ethoxy-1-methyl-6-oxo-1,6-dihydropyridin-3-yl)phenyl]-4-methylpentanamide] | 143 | 54.5 | 637
